Measured values reported in patent US20230233569A1 (Revolution Medicines, Inc., priority 2020, published 2023).

Assays:
AsPC-1 (K-Ras G12D) [1] = assay: Potency assay: pERK; format: cell-based; details: Homo sapiens, ASPC1, read-out: pERK EC50
KRAS G12C = KRAS G12C (Homo sapiens, UniProt P01116+P62937, G12C); assay: Ras-Raf disruption / FRET / MOA assay (BRAF RBD); format: biochemical; details: KRAS G12C FRET data IC50, Ras-Raf disruption, with Cyclophilin A
How it was run: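 His6-K-Ras G12C-GMPPNP (12.5 nM), GST-BRAF RBD (50 nM) and tagless Cyclophilin A (25 μM) incubated 3 h at 25 °C with compound (10-point 3-fold series from 30 μM), pH 7.3 HEPES buffer. Anti-His Eu/anti-GST APC added for 1.5 h; decreased TR-FRET ratio vs DMSO gives IC50.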

AsPC-1 (K-Ras G12D) [2] = assay: CellTiter-Glo cell viability assay; format: cell-based; details: Homo sapiens, ASPC1, 120 h, read-out: AsPC-1 Cell Viability assay data IC50, K-Ras G12D, 5-day treatment
Method: Determination of Cell Viability in RAS Mutant Cancer Cell Lines
Protocol: CellTiter-Glo® Cell Viability Assay
Note—The following protocol describes a procedure for monitoring cell viability of K-Ras mutant cancer cell lines in response to a compound of the invention. Other RAS isoforms may be employed, though the number of cells to be seeded will vary based on cell line used.
Test compounds (132.5 nL) were directly dispensed into the assay plates containing cells. […] On day 5, assay plates and their contents were equilibrated to room temperature for approximately 30 minutes. […] Luminescence was measured using the PerkinElmer Enspire. Data were normalized by the following: (Sample signal/Avg. DMSO)*100. The data were fit using a four-parameter logistic fit.

KRAS G12D = KRAS G12D (Homo sapiens, UniProt P01116+P62937, G12D); assay: Ras-Raf disruption / FRET / MOA assay (BRAF RBD); format: biochemical; details: KRAS G12D FRET data IC50, Ras-Raf disruption, with Cyclophilin A
Chain of KRAS G12D (P01116 1-169 isoform P01116-2 G12D limits assumed): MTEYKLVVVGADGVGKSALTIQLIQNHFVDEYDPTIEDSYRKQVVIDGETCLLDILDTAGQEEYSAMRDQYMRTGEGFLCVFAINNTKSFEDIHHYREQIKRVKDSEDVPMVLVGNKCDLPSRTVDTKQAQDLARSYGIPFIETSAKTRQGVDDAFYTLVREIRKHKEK
Chain of KRAS G12D (P62937 whole entry): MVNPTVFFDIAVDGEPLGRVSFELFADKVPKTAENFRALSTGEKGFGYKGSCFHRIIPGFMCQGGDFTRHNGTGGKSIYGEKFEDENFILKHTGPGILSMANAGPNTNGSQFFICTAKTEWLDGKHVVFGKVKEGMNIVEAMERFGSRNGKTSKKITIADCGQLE
How it was run: (§1)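 TR-FRET in 25 mM HEPES pH 7.3, 100 mM NaCl, 5 mM MgCl2, 0.1% BSA, 0.002% Tween20 with 25 μM Cyclophilin A, 12.5 nM His6-Ras-GMPPNP, 50 nM GST-BRAF RBD; compound 10-point 3-fold series from 30 μM. After 3 h at 25 °C, Eu anti-His/APC anti-GST added for 1.5 h; IC50 from ratio decrease versus DMSO.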

KRAS G12S = KRAS G12S (Homo sapiens, UniProt P01116+P62937, G12S); assay: Ras-Raf disruption / FRET / MOA assay (BRAF RBD); format: biochemical; details: KRAS G12S FRET data IC50, Ras-Raf disruption, with Cyclophilin A
Chain of KRAS G12S (P01116 1-169 isoform P01116-2 G12S limits assumed): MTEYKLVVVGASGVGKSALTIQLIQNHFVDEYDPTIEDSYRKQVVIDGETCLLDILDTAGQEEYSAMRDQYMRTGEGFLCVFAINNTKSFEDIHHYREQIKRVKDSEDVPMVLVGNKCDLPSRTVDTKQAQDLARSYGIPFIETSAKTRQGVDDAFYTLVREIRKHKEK
Chain of KRAS G12S (P62937 whole entry): as the sequence (P62937 whole entry) above
How it was run: as §1

KRAS G12V = KRAS G12V (Homo sapiens, UniProt P01116+P62937, G12V); assay: Ras-Raf disruption / FRET / MOA assay (BRAF RBD); format: biochemical; details: KRAS G12V FRET data IC50, Ras-Raf disruption, with Cyclophilin A
Chain of KRAS G12V (P01116 1-169 isoform P01116-2 G12V limits assumed): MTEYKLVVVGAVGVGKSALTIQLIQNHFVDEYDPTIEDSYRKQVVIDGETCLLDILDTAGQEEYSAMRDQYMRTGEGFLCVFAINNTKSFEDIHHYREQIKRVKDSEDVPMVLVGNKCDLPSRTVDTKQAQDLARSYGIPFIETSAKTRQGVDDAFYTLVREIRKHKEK
Chain of KRAS G12V (P62937 whole entry): as the sequence (P62937 whole entry) above
How it was run: as §1

KRAS G13C = KRAS G13C (Homo sapiens, UniProt P01116+P62937, G13C); assay: Ras-Raf disruption / FRET / MOA assay (BRAF RBD); format: biochemical; details: KRAS G13C FRET data IC50, Ras-Raf disruption, with Cyclophilin A
Chain of KRAS G13C (P01116 1-169 isoform P01116-2 G13C limits assumed): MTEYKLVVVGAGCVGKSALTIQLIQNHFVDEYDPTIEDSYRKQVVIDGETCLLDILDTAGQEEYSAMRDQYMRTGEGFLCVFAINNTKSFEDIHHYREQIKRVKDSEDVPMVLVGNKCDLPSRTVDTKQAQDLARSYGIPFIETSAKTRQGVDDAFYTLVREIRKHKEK
Chain of KRAS G13C (P62937 whole entry): as the sequence (P62937 whole entry) above
How it was run: as §1

KRAS G13D = KRAS G13D (Homo sapiens, UniProt P01116+P62937, G13D); assay: Ras-Raf disruption / FRET / MOA assay (BRAF RBD); format: biochemical; details: KRAS G13D FRET data IC50, Ras-Raf disruption, with Cyclophilin A
Chain of KRAS G13D (P01116 1-169 isoform P01116-2 G13D limits assumed): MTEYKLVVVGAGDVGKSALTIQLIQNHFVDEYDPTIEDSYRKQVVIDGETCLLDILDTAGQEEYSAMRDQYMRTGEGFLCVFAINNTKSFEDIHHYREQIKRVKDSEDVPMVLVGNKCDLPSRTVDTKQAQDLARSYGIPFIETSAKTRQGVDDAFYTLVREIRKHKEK
Chain of KRAS G13D (P62937 whole entry): as the sequence (P62937 whole entry) above
How it was run: as §1

KRAS WT = KRAS WT (Homo sapiens, UniProt P01116+P62937); assay: Ras-Raf disruption / FRET / MOA assay (BRAF RBD); format: biochemical; details: KRAS WT FRET data IC50, Ras-Raf disruption, with Cyclophilin A
Chain of KRAS WT (P01116 1-169 isoform P01116-2 limits assumed): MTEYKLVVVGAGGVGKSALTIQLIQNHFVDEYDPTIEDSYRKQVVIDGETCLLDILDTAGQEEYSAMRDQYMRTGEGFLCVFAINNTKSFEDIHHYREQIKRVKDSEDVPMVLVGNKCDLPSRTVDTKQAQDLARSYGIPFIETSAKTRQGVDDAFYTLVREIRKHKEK
Chain of KRAS WT (P62937 whole entry): as the sequence (P62937 whole entry) above
How it was run: as §1

NRAS G12C = NRAS G12C (Homo sapiens, UniProt P01111+P62937, G12C); assay: Ras-Raf disruption / FRET / MOA assay (BRAF RBD); format: biochemical; details: NRAS G12C FRET data IC50, NRAS G12C
Chain of NRAS G12C (P01111 whole entry G12C): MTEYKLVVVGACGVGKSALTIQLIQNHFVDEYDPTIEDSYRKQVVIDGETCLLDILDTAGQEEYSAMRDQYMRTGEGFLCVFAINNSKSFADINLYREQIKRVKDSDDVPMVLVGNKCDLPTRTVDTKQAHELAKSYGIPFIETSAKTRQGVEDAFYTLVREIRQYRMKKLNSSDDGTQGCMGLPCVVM
Chain of NRAS G12C (P62937 whole entry): as the sequence (P62937 whole entry) above
How it was run: as §1

Chain of KRAS G12C (P01116 1-169 isoform P01116-2 G12C limits assumed): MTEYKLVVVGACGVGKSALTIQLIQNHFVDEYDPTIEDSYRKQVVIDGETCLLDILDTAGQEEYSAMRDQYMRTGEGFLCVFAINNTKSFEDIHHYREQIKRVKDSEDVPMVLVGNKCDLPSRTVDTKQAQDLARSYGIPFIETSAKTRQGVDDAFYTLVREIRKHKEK
Chain of KRAS G12C (P62937 whole entry): as the sequence (P62937 whole entry) above

| SMILES | EC50 (AsPC-1 (K-Ras G12D) [1]) [nM] | IC50 (KRAS G12C) [nM] | IC50 (AsPC-1 (K-Ras G12D) [2]) [nM] | IC50 (KRAS G12D) [nM] | IC50 (KRAS G12S) [nM] | IC50 (KRAS G12V) [nM] | IC50 (KRAS G13C) [nM] | IC50 (KRAS G13D) [nM] | IC50 (KRAS WT) [nM] | IC50 (NRAS G12C) [nM] |
| --- | --- | --- | --- | --- | --- | --- | --- | --- | --- | --- |
| CCn1c(-c2cnccc2COC)c2c3cc(ccc31)-c1cc(O)cc(c1)C[C@H](NC(=O)[C@H](C(C)C)N(C)C(=O)CN(C)C(=O)C1CN1)C(=O)N1CCC[C@H](N1)C(=O)OCC(C)(C)C2 (stereo partly shown) [Example 33] | < 5000 | 10 to 100 | – | – | – | – | – | – | – | – |
| CCn1c(-c2cnccc2COC)c2c3cc(ccc31)-c1cc(O)cc(c1)C[C@H](NC(=O)[C@H](C(C)C)N(C)C(=O)CN(C)C(=O)[C@H]1N[C@H]1C(=O)OC)C(=O)N1CCC[C@H](N1)C(=O)OCC(C)(C)C2 [Example 51] | < 5000 | – | > 10000 | – | – | – | – | – | – | – |
| CCn1c(-c2cnccc2COC)c2c3cc(ccc31)-c1cc(O)cc(c1)C[C@H](NC(=O)[C@H](C(C)C)N(C)C(=O)CN(C)C(=O)[C@H]1N[C@H]1C1CC1)C(=O)N1CCC[C@H](N1)C(=O)OCC(C)(C)C2 [Example 104] | < 5000 | – | 1000 to 10000 | – | – | – | – | – | – | – |
| CCn1c(-c2cnccc2COC)c2c3cc(ccc31)-c1cc(O)cc(c1)C[C@H](NC(=O)[C@H](C(C)C)N(C)C(=O)CN(C)C(=O)[C@@H]1N[C@@H]1C)C(=O)N1CCC[C@H](N1)C(=O)OCC(C)(C)C2 [Example 105] | < 5000 | – | 1000 to 10000 | – | – | – | – | – | – | – |
| CCn1c(-c2cnccc2COC)c2c3cc(ccc31)-c1cc(O)cc(c1)C[C@H](NC(=O)[C@H](C(C)C)N(C)C(=O)CN(C)C(=O)[C@@H]1N[C@@H]1c1ccccc1)C(=O)N1CCC[C@H](N1)C(=O)OCC(C)(C)C2 [Example 110] | < 5000 | – | 1000 to 10000 | – | – | – | – | – | – | – |
| CCn1c(-c2cccnc2[C@H](C)OC)c2c3cc(ccc31)-c1cc(O)cc(c1)C[C@H](NC(=O)[C@H](C(C)C)N(C)C(=O)[C@@H](C)N(C)C(=O)[C@H]1CN1)C(=O)N1CCC[C@H](N1)C(=O)OCC(C)(C)C2 [Example 114] | < 5000 | 10 to 100 | 1000 to 10000 | 1000 to 10000 | 1000 to 10000 | 1000 to 10000 | 100 to 1000 | 1000 to 10000 | 1000 to 10000 | 10 to 100 |
| CCn1c(-c2cccnc2[C@H](C)OC)c2c3cc(ccc31)-c1cc(O)cc(c1)C[C@H](NC(=O)[C@H](C(C)C)N(C)C(=O)CN(C)C(=O)[C@H]1N[C@@H]1C1CC1)C(=O)N1CCC[C@H](N1)C(=O)OCC(C)(C)C2 [Example 135] | – | < 10 | 100 to 1000 | 10 to 100 | < 10 | 10 to 100 | < 10 | 10 to 100 | 10 to 100 | < 10 |
| CCn1c(-c2cccnc2[C@H](C)OC)c2c3cc(ccc31)-c1cc(O)cc(c1)C[C@H](NC(=O)[C@H](C(C)C)N(C)C(=O)CNC(=O)[C@H]1CN1)C(=O)N1CCC[C@H](N1)C(=O)OCC(C)(C)C2 [Example 140] | < 5000 | < 10 | 1000 to 10000 | 10 to 100 | 10 to 100 | 10 to 100 | < 10 | 10 to 100 | 10 to 100 | < 10 |
| CCn1c(-c2cccnc2[C@H](C)OC)c2c3cc(ccc31)-c1cc(O)cc(c1)C[C@H](NC(=O)[C@H](C(C)C)N(C)C(=O)CNC(=O)[C@@H]1CN1)C(=O)N1CCC[C@H](N1)C(=O)OCC(C)(C)C2 [Example 147] | < 5000 | 10 to 100 | 1000 to 10000 | 100 to 1000 | 10 to 100 | 10 to 100 | 10 to 100 | 100 to 1000 | 10 to 100 | 10 to 100 |
